One substance from patent publication US20050153304A1, “Multivariate profiling of complex biological regulatory pathways” (Government of the USA, as represented by the secretary, …, priority 2003, published 2005) can be followed below.

In assay [1] the test system is Jurkat T-cells, 8 promoter elements. The experiment in a line: Principal component analysis of vector differences between mitogen profiles in the absence and presence of drug (8 promoter elements). Type of assay: cell-based, human. As to conditions: subtraction vectors versus control mitogen profiles, FIG. 5. The procedure: The mitogen activation profiles under control conditions shown in red FIG. 4 were used to calculate subtraction vectors for each profile in the presence of a drug treatment. These vectors were then analyzed by PCA to show similarities and differences in targeting.
(§1) A human acute lymphoblastic T-cell leukemia cell line (Jurkat) was individually electroporated with 5 ug of a luciferase reporter plasmids driven by the interleukin 2 (IL-2) promoter, the NFAT element of the IL-2 promoter, the CD28RE-AP1 element of the IL-2 promoter, a consensus AP-1 element, a consensus NF-kappa B element, a consensus CRE element and the co-transfection of a Gal4 binding site or upstream activation sequence (UAS) driving a luciferase reporter in combination with either a full length Gal4-p300 fusion (FL) or a N-terminal domain fusion of p300 (amino acids 1-743). Electroporation was performed in a 96 well format with a BTX 96-well gold electrode. Cells were electroporated at 10 millions cells per well with each experiment repeated in triplicates. Following electroporation cells were stimulated with various combination of T-cell mitogens (see Table 1). Cells were harvested 5 hours after stimulation and assayed for luciferase activity by a 96 well luminometer. […]

Assay [2] concerns NF-kappa B pathway. Description: Luciferase reporter transfection in mitogen-stimulated Jurkat T-cells, principal component analysis of mitogen profiles. The class given is cell-based, human. As to conditions: co-stimulation with anti-CD28, FIG. 4 and FIG. 6. The procedure:
as §1, with “luminometer. Data were normalized first for fold activation for each experiment and then inputted into an activation matrix where the data were normalized to percent maximum stimulation.” for “luminometer.”
(Reporter assays use an easily measured gene product as a stand-in for the process of interest.)

As to “IGF-1: insulin-like growth factor one, a peptide growth factor”, the “drug targeting profile (similarity of pathways targeted)” value in assay [1] was “appear to target the same pathway”. In addition, the “effect on NF-kappa B pathway in activated T-cells” value in assay [2] was “synergies with anti-CD28 stimulation in activated T-cells to upregulate the NF-kappa B pathway”.
